Experimental data reported in the NIST ThermoML archive (doi:10.1016/j.fluid.2017.09.019).

Test: wn = mass fraction of the nth substance listed
Conditions: 101 kPa, Liquid; for viscosity: Concentric cylinders viscometry; for mass density: Vibrating tube method

CC(O)CN(C)C (stereo not given) [1-(dimethylamino)-2-propanol] + O
Conditions | mass density [kg/m3] | viscosity [mPa·s]
298.15 K, w1 = 0.2 | 988.2 | 2.407
298.15 K, w1 = 0.25 | 986.5 | 2.995
298.15 K, w1 = 0.3 | 984.4 | 3.886
298.15 K, w1 = 0.35 | 979.5 | 4.735
298.15 K, w1 = 0.4 | 976.4 | 5.67
298.15 K, w1 = 0.45 | 970.3 | 6.602
298.15 K, w1 = 0.5 | 966.2 | 7.632
298.15 K, w1 = 0.6 | 949.4 | 8.956
298.15 K, w1 = 0.7 | 930.9 | 9.925
298.15 K, w1 = 0.8 | 908.8 | 8.482
298.15 K, w1 = 0.9 | 879.8 | 5.585
298.15 K, w1 = 0.95 | 863.9 | 3.79
298.15 K, w1 = 0.96 | 858.1 | 3.282
298.15 K, w1 = 0.98 | 852.4 | 2.094
298.15 K, w1 = 1 | 845.4 | 1.332
303.15 K, w1 = 0.2 | 985.7 | 2.018
303.15 K, w1 = 0.25 | 983.5 | 2.51
303.15 K, w1 = 0.3 | 981 | 3.097
303.15 K, w1 = 0.35 | 976.1 | 3.805
303.15 K, w1 = 0.4 | 972.1 | 4.54
303.15 K, w1 = 0.45 | 966.4 | 5.187
303.15 K, w1 = 0.5 | 962.1 | 5.965
303.15 K, w1 = 0.6 | 944.6 | 6.964
303.15 K, w1 = 0.7 | 925.3 | 7.654
303.15 K, w1 = 0.8 | 903.5 | 6.762
303.15 K, w1 = 0.9 | 875 | 4.935
303.15 K, w1 = 0.95 | 858.9 | 3.199
303.15 K, w1 = 0.96 | 853.1 | 2.783
303.15 K, w1 = 0.98 | 847.3 | 1.875
303.15 K, w1 = 1 | 840.3 | 1.183
308.15 K, w1 = 0.2 | 983 | 1.738
308.15 K, w1 = 0.25 | 980.6 | 2.115
308.15 K, w1 = 0.3 | 977.8 | 2.559
308.15 K, w1 = 0.35 | 972.4 | 3.115
308.15 K, w1 = 0.4 | 968.3 | 3.647
308.15 K, w1 = 0.45 | 961.8 | 4.156
308.15 K, w1 = 0.5 | 957.7 | 4.75
308.15 K, w1 = 0.6 | 940 | 5.487
308.15 K, w1 = 0.7 | 919.8 | 6.02
308.15 K, w1 = 0.8 | 899.1 | 5.106
308.15 K, w1 = 0.9 | 870.1 | 3.396
308.15 K, w1 = 0.95 | 854.1 | 2.463
308.15 K, w1 = 0.96 | 848.4 | 2.211
308.15 K, w1 = 0.98 | 842.4 | 1.499
308.15 K, w1 = 1 | 835.5 | 1.059
313.15 K, w1 = 0.2 | 980.4 | 1.509
313.15 K, w1 = 0.25 | 977.5 | 1.803
313.15 K, w1 = 0.3 | 973.6 | 2.161
313.15 K, w1 = 0.35 | 968.4 | 2.587
313.15 K, w1 = 0.4 | 964.1 | 3.016
313.15 K, w1 = 0.45 | 957.8 | 3.375
313.15 K, w1 = 0.5 | 953.4 | 3.851
313.15 K, w1 = 0.6 | 935.4 | 4.387
313.15 K, w1 = 0.7 | 915.8 | 4.853
313.15 K, w1 = 0.8 | 894.1 | 4.197
313.15 K, w1 = 0.9 | 865.3 | 2.909
313.15 K, w1 = 0.95 | 849.3 | 2.048
313.15 K, w1 = 0.96 | 843.6 | 1.835
313.15 K, w1 = 0.98 | 837.6 | 1.322
313.15 K, w1 = 1 | 830.7 | 0.955
318.15 K, w1 = 0.2 | 977.5 | 1.325
318.15 K, w1 = 0.25 | 974.3 | 1.562
318.15 K, w1 = 0.3 | 969.8 | 1.852
318.15 K, w1 = 0.35 | 964.1 | 2.194
318.15 K, w1 = 0.4 | 959.9 | 2.523
318.15 K, w1 = 0.45 | 953.6 | 2.808
318.15 K, w1 = 0.5 | 949 | 3.178
318.15 K, w1 = 0.6 | 930.7 | 3.577
318.15 K, w1 = 0.7 | 910.9 | 3.973
318.15 K, w1 = 0.8 | 889.4 | 3.577
318.15 K, w1 = 0.9 | 860.5 | 2.629
318.15 K, w1 = 0.95 | 844.4 | 1.921
318.15 K, w1 = 0.96 | 838.7 | 1.735
318.15 K, w1 = 0.98 | 832.6 | 1.2
318.15 K, w1 = 1 | 825.8 | 0.866
323.15 K, w1 = 0.2 | 974.2 | 1.179
323.15 K, w1 = 0.25 | 971 | 1.363
323.15 K, w1 = 0.3 | 966.2 | 1.598
323.15 K, w1 = 0.35 | 960.2 | 1.868
323.15 K, w1 = 0.4 | 955.5 | 2.129
323.15 K, w1 = 0.45 | 949.4 | 2.36
323.15 K, w1 = 0.5 | 944.5 | 2.652
323.15 K, w1 = 0.6 | 925.9 | 2.974
323.15 K, w1 = 0.7 | 906.8 | 3.301
323.15 K, w1 = 0.8 | 884.6 | 2.909
323.15 K, w1 = 0.9 | 855.9 | 1.929
323.15 K, w1 = 0.95 | 839.5 | 1.357
323.15 K, w1 = 0.96 | 833.8 | 1.192
323.15 K, w1 = 0.98 | 827.7 | 1.003
323.15 K, w1 = 1 | 820.9 | 0.788
328.15 K, w1 = 0.2 | 971.2 | 1.05
328.15 K, w1 = 0.25 | 967.6 | 1.201
328.15 K, w1 = 0.3 | 962.4 | 1.402
328.15 K, w1 = 0.35 | 955.6 | 1.62
328.15 K, w1 = 0.4 | 951.3 | 1.821
328.15 K, w1 = 0.45 | 944.2 | 2.008
328.15 K, w1 = 0.5 | 940.1 | 2.239
328.15 K, w1 = 0.6 | 921.2 | 2.486
328.15 K, w1 = 0.7 | 901.7 | 2.781
328.15 K, w1 = 0.8 | 880 | 2.471
328.15 K, w1 = 0.9 | 850.6 | 1.824
328.15 K, w1 = 0.95 | 834.6 | 1.348
328.15 K, w1 = 0.96 | 828.8 | 1.208
328.15 K, w1 = 0.98 | 822.8 | 0.983
328.15 K, w1 = 1 | 816 | 0.72
333.15 K, w1 = 0.2 | 967.8 | 0.934
333.15 K, w1 = 0.25 | 964.2 | 1.067
333.15 K, w1 = 0.3 | 958.4 | 1.236
333.15 K, w1 = 0.35 | 950.9 | 1.483
333.15 K, w1 = 0.4 | 946.7 | 1.577
333.15 K, w1 = 0.45 | 939.2 | 1.724
333.15 K, w1 = 0.5 | 936.1 | 1.911
333.15 K, w1 = 0.6 | 916 | 2.106
333.15 K, w1 = 0.7 | 897.1 | 2.374
333.15 K, w1 = 0.8 | 875.3 | 2.182
333.15 K, w1 = 0.9 | 845 | 1.687
333.15 K, w1 = 0.95 | 830.9 | 1.236
333.15 K, w1 = 0.96 | 823.8 | 1.102
333.15 K, w1 = 0.98 | 817.9 | 0.853
333.15 K, w1 = 1 | 811.1 | 0.662
